# Results reported in ChEMBL document CHEMBL6109117, “Synthesis of an RBM39 Degrader That Downregulates CEP192 and Induces Disorganized Spindle Structures” (J Med Chem, 2025).
# The source made the active and inactive calls. The rule behind the calls is not given here.
# Legend:
# [1] = tested on: HCT-116; test: Antiproliferative activity against human HCT-116 cells incubated for 4 days by CCK8 assay; format: functional, cell-based; settings: HCT-116, 96 h
# [2] = tested on: HCT-116; test: Induction of RBM39 degradation in human HCT-116 cells at 0.1 to 1 uM incubated for 24 hrs by Western blot analysis; format: cell-based; settings: dose 0.1-1 µM
# [3] = tested on: HCT-116; test: Induction of RBM39 degradation in human HCT-116 cells assessed as fold change at 0.1 uM incubated for 24 hrs by Western blot analysis relative to control; format: cell-based
# [4] = tested on: HCT-116; test: Induction of RBM39 degradation in human HCT-116 cells assessed as fold change at 1 uM incubated for 24 hrs by Western blot analysis relative to control; format: cell-based
# [5] = Competitive inhibition of N-terminal His-tagged RBM39 (146 to 326 residues)/DCAF15 (2 to 600 residues)/full-length DDB1 (1 to 1140 residues)(unknown origin) incubated for 1 hr in presence of (R)-N-(3-(N-(3-Cyano-4-methyl-1H-indol-7-yl)sulfamoyl)phenyl)-2-(2-(((6-(3-(3',6'-dihydroxy-3-oxo-3H-spiro[isobenzofuran-1,9'-xanthen]-5-yl)thioureido)hexyl)amino)methyl)pyrrolidin-1-yl)-2-oxoacetamide by fluorescence polarization assay; set-up: species or system Homo sapiens
# [6] = Inhibition of N-terminal His-tagged RBM39 (146 to 326 residues)/DCAF15 (2 to 600 residues)/full-length DDB1 (1 to 1140 residues)(unknown origin) incubated for 1 hr by fluorescence polarization assay; set-up: species or system Homo sapiens
# [7] = Inhibition of DCAF15 (2 to 600 residues)/full-length DDB1 (1 to 1140 residues)(unknown origin) incubated for 1 hr by fluorescence polarization assay; set-up: species or system Homo sapiens
IC50 [1] [nM],SMILES,Activity [2],fold change (FC) [3],fold change (FC) [4],also measured
1500,Cc1ccc(NS(=O)(=O)c2cccc(NC(=O)C(=O)NCCCN)c2)c2[nH]cc(C#N)c12,–,–,–,–
67.8,Cc1ccc(NS(=O)(=O)c2cccc(NC(=O)C(=O)NCCCCCN)c2)c2[nH]cc(C#N)c12,Active,0.8,0.3,IC50 [5]: 301 nM
696,COC[C@@H]1CCCN1C(=O)C(=O)Nc1cccc(S(=O)(=O)Nc2ccc(C)c3c(C#N)c[nH]c23)c1,–,–,–,–
776,Cc1ccc(NS(=O)(=O)c2cccc(NC(=O)C(=O)NCCCCCCN(C)C)c2)c2[nH]cc(C#N)c12,–,–,–,–
729,COC[C@H]1CCCN1C(=O)C(=O)Nc1cccc(S(=O)(=O)Nc2ccc(C)c3c(C#N)c[nH]c23)c1,–,–,–,–
58,Cc1ccc(NS(=O)(=O)c2cccc(NC(=O)C(=O)N3CCCC[C@@H]3CO)c2)c2[nH]cc(C#N)c12,Active,0.66,0.17,–
–,Cc1ccc(NS(=O)(=O)c2cccc(NC(=O)C(=O)N3CCC[C@@H]3CNCCCCCCNC(=S)Nc3ccc4c(c3)C(=O)OC43c4ccc(O)cc4Oc4cc(O)ccc43)c2)c2[nH]cc(C#N)c12,–,–,–,IC50 [6]: 208 nM; IC50 [7]: > 2000 nM
1000,Cc1ccc(NS(=O)(=O)c2cccc(NC(=O)C(=O)NCCCCN)c2)c2[nH]cc(C#N)c12,–,–,–,–
927,Cc1ccc(NS(=O)(=O)c2cccc(NC(=O)C(=O)NCCCCCCCN)c2)c2[nH]cc(C#N)c12,–,–,–,–
70.3,Cc1ccc(NS(=O)(=O)c2cccc(NC(=O)C(=O)N3CCCC[C@H]3CO)c2)c2[nH]cc(C#N)c12,Active,0.59,0.21,–
50.3,Cc1ccc(NS(=O)(=O)c2cccc(NC(=O)C(=O)N3CCC[C@H]3CO)c2)c2[nH]cc(C#N)c12,Active,0.49,0.32,–
398,Cc1ccc(NS(=O)(=O)c2cccc(NC(=O)C(=O)NCCCCCN(C)C)c2)c2[nH]cc(C#N)c12,–,–,–,–
150,Cc1ccc(NS(=O)(=O)c2cccc(NC(=O)C(=O)NCCCCCCN)c2)c2[nH]cc(C#N)c12,–,–,–,–
90.5,Cc1ccc(NS(=O)(=O)c2cccc(NC(=O)C(=O)N3CCC[C@H]3CN)c2)c2[nH]cc(C#N)c12,Active,0.55,0.18,–
52.3,Cc1ccc(NS(=O)(=O)c2cccc(NC(=O)C(=O)N3CCC[C@@H]3CN)c2)c2[nH]cc(C#N)c12,Active,0.52,0.22,–
2900,Cc1ccc(NS(=O)(=O)c2cccc(NC(=O)C(=O)NCCN)c2)c2[nH]cc(C#N)c12,–,–,–,–
